Assay [1] has as its target GST-Bcl-xL (Homo sapiens, UniProt Q07817). Particulars: read-out: TR-FRET binding Bcl-xL Ki. (In general: In TR-FRET formats the signal depends on donor and acceptor labels being close together.)
Assay [2] concerns mouse FL5.12 cells transfected with Bcl-XL. The experiment in a line: FL5.12 cellular assay (cell viability, CellTiter-Glo).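 Note: each EC50 determination derived from duplicate measurements.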 The assay is classed as cell-based. Particulars: FL5.12 cells transfected with Bcl-XL, IL-3-depleted, 3% FBS assay media, 24 hours, CellTiter-Glo, read-out: FL5.12 Bcl-xL, - IL3, EC 50. In general terms: In ATP-based viability assays light output follows the ATP content of the culture.
Protocol: For assaying the compound activity, the cells were exchanged into an IL-3-depleted deprivation media, which was identical to the growth media except for the absence of FBS and WEHI-3B conditional media, for 2 days. Then the cells were exchanged to 3% FBS assay media (RPMI with 2 mM glutamine, 1% 100 mM sodium pyruvate, 2% 1 M HEPES, 4 µL/L of β-mercaptoethanol, 1% penicillin-streptomycin, 3% FBS). Compounds in series dilutions were added, and the cells were cultured for 24 hours. Compounds in series dilutions were added, and the cells were cultured for 24 hours. Cell viability was assayed using the CellTiter-Glo assay (Promega Corp., Madison, WI) according to the manufacturer instructions. Individual determinations were the result of duplicate values.

Read-outs that look alike come from different tables or passages of the source. Some results are limits rather than exact numbers.

Sequence of GST-Bcl-xL (Q07817 whole entry): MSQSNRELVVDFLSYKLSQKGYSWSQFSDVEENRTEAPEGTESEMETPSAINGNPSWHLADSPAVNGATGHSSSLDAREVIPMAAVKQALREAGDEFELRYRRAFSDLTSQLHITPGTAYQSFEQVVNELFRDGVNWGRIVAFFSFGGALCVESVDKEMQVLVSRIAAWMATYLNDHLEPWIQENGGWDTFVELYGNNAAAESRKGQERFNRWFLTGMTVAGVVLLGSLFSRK

A word on the Ki: it is a measure of affinity in units of concentration, obtained from inhibition or displacement. For the molecule `Cc1cc(OCC2CCCCC2)ccc1-c1ccc(N2CCc3cccc(C(=O)Nc4nc5ccccc5s4)c3C2)nc1C(=O)O` [Example 115, 6-[8-(1,3-benzothiazol-2-ylcarbamoyl)-3,4-dihydroisoquinolin-2(1H)-yl]-3-[4-(cyclohexylmethoxy)-2-methylphenyl]pyridine-2-carboxylic acid], the inhibitory constant (Ki) in assay [1] was found to be 5 nM. In addition, the EC50 in assay [2] (Mus musculus) stood at 916 nM.

Take `O=C(Nc1nc2ccccc2s1)c1cccc2c1CN(c1ccc(-c3cccc(OC4CCCCC4)c3C(F)(F)F)c(C(=O)O)n1)CC2` [Example 120, 6-[8-(1,3-benzothiazol-2-ylcarbamoyl)-3,4-dihydroisoquinolin-2(1H)-yl]-3-[3-(cyclohexyloxy)-2-(trifluoromethyl)phenyl]pyridine-2-carboxylic acid]: the inhibitory constant (Ki) in assay [1] stood at 0.4 nM. For the same molecule, the EC50 in assay [2] (Mus musculus) stood at 859 nM.

Regarding `CC(C)CC1(Cn2cc(-c3ccc(N4CCc5cccc(C(=O)Nc6nc7ccccc7s6)c5C4)nc3C(=O)O)cn2)CCCCC1` [Example 87, 6-[8-(1,3-benzothiazol-2-ylcarbamoyl)-3,4-dihydroisoquinolin-2(1H)-yl]-3-(1-{[1-(2-methylpropyl)cyclohexyl]methyl}-1H-pyrazol-4-yl)pyridine-2-carboxylic acid], in assay [1], the Ki was 4 nM. For the same molecule, the EC50 in assay [2] (Mus musculus) came out at 124 nM.

On to `Cc1c(-c2ccc(N3CCc4cccc(C(=O)Nc5nc6ccccc6s5)c4C3)nc2C(=O)O)cnn1C(CCN1CCOCC1)C1CCCCC1` (centres unmarked) [Example 152, 6-[8-(1,3-benzothiazol-2-ylcarbamoyl)-3,4-dihydroisoquinolin-2(1H)-yl]-3-{1-[1-cyclohexyl-3-(morpholin-4-yl)propyl]-5-methyl-1H-pyrazol-4-yl}pyridine-2-carboxylic acid], for which the Ki in assay [1] is less than 0.1 nM. For the same molecule, the EC50 in assay [2] (Mus musculus) worked out at 1 nM.

`Cc1c(NC2CCCCC2)cccc1-c1ccc(N2CCc3cccc(C(=O)Nc4nc5ccccc5s4)c3C2)nc1C(=O)O` [Example 118, 6-[8-(1,3-benzothiazol-2-ylcarbamoyl)-3,4-dihydroisoquinolin-2(1H)-yl]-3-[3-(cyclohexylamino)-2-methylphenyl]pyridine-2-carboxylic acid]: in assay [1], the Ki turned out to be 0.2 nM. For the same molecule, the EC50 in assay [2] (Mus musculus) was 361 nM.

`COCC(COC1(Cn2ncc(-c3ccc(N4CCc5cccc(C(=O)Nc6nc7ccccc7s6)c5C4)nc3C(=O)O)c2C)CCCCCC1)OC` (centres unmarked) [Example 170, 6-[8-(1,3-benzothiazol-2-ylcarbamoyl)-3,4-dihydroisoquinolin-2(1H)-yl]-3-(1-{[1-(2,3-dimethoxypropoxy)cycloheptyl]methyl}-5-methyl-1H-pyrazol-4-yl)pyridine-2-carboxylic acid]: the Ki in assay [1] is less than 0.1 nM. The EC50 in assay [2] (Mus musculus) came to 0.5 nM.

As for `O=C(Nc1nc2ccccc2s1)c1cccc2c1CN(c1ccc(-c3cn(Cc4ccccc4)nn3)c(C(=O)O)n1)CC2` [Example 122, 6-[8-(1,3-benzothiazol-2-ylcarbamoyl)-3,4-dihydroisoquinolin-2(1H)-yl]-3-(1-benzyl-1H-1,2,3-triazol-4-yl)pyridine-2-carboxylic acid], the Ki in assay [1] came out at 117 nM. The EC50 in assay [2] (Mus musculus) is more than 1000 nM.

Turning to `Cc1c(-c2ccc(N3CCc4cccc(C(=O)Nc5nc6ccccc6s5)c4C3)nc2C(=O)O)cnn1CC1CCCCO1` (centres unmarked) [Example 154, 6-[8-(1,3-benzothiazol-2-ylcarbamoyl)-3,4-dihydroisoquinolin-2(1H)-yl]-3-[5-methyl-1-(tetrahydro-2H-pyran-2-ylmethyl)-1H-pyrazol-4-yl]pyridine-2-carboxylic acid], the inhibitory constant (Ki) in assay [1] is less than 0.1 nM. Moreover, the EC50 in assay [2] (Mus musculus) was 15 nM.

`Cc1c(-c2ccc(N3CCc4cccc(C(=O)Nc5nc6ccccc6s5)c4C3)nc2C(=O)O)cnn1CC1(OCCS(C)(=O)=O)CCCC(C)(C)C1` (centres unmarked) [Example 178, 6-[8-(1,3-benzothiazol-2-ylcarbamoyl)-3,4-dihydroisoquinolin-2(1H)-yl]-3-[1-({3,3-dimethyl-1-[2-(methylsulfonyl)ethoxy]cyclohexyl}methyl)-5-methyl-1H-pyrazol-4-yl]pyridine-2-carboxylic acid]: in assay [1], the Ki was less than 0.1 nM. Further, the EC50 in assay [2] (Mus musculus) was determined as 0.2 nM.

On to `Cc1c(-c2ccc(N3CCc4cccc(C(=O)Nc5nc6ccccc6s5)c4C3)nc2C(=O)O)cnn1Cc1ccccc1F` [Example 41, 6-[8-(1,3-benzothiazol-2-ylcarbamoyl)-3,4-dihydroisoquinolin-2(1H)-yl]-3-[1-(2-fluorobenzyl)-5-methyl-1H-pyrazol-4-yl]pyridine-2-carboxylic acid], for which the Ki in assay [1] turned out to be 1 nM. In addition, the EC50 in assay [2] (Mus musculus) worked out at 11 nM.

With `CN(C)c1ccccc1Cn1cc(-c2ccc(N3CCc4cccc(C(=O)Nc5nc6ccccc6s5)c4C3)nc2C(=O)O)cn1` [Example 80, 6-[8-(1,3-benzothiazol-2-ylcarbamoyl)-3,4-dihydroisoquinolin-2(1H)-yl]-3-{1-[2-(dimethylamino)benzyl]-1H-pyrazol-4-yl}pyridine-2-carboxylic acid], in assay [1], the Ki was 4 nM. The EC50 in assay [2] (Mus musculus) stood at 253 nM.

As for `Cc1c(-c2ccc(N3CCc4cccc(C(=O)Nc5nc6ccccc6s5)c4C3)nc2C(=O)O)cnn1Cc1ccccc1OCC(C)(CO)CO` [Example 98, 6-[8-(1,3-benzothiazol-2-ylcarbamoyl)-3,4-dihydroisoquinolin-2(1H)-yl]-3-(1-{2-[3-hydroxy-2-(hydroxymethyl)-2-methylpropoxy]benzyl}-5-methyl-1H-pyrazol-4-yl)pyridine-2-carboxylic acid], the Ki in assay [1] was determined as 2 nM. Also, in assay [2] (Mus musculus), the EC50 amounted to 421 nM.

For the molecule `O=C(Nc1nc2ccccc2s1)c1cccc2c1CN(c1ccc(-c3cn(Cc4ccccc4)c4ncccc34)c(C(=O)O)n1)CC2` [Example 141, 6-[8-(1,3-benzothiazol-2-ylcarbamoyl)-3,4-dihydroisoquinolin-2(1H)-yl]-3-(1-benzyl-1H-pyrrolo[2,3-b]pyridin-3-yl)pyridine-2-carboxylic acid], the Ki in assay [1] is 1 nM. The EC50 in assay [2] (Mus musculus) stood at 433 nM.

As for `Cc1c(-c2ccc(N3CCc4cccc(C(=O)Nc5nc6ccccc6s5)c4C3)nc2C(=O)O)cnn1CC1(OCC(O)CO)CCCCCC1` (centres unmarked) [Example 175, 6-[8-(1,3-benzothiazol-2-ylcarbamoyl)-3,4-dihydroisoquinolin-2(1H)-yl]-3-(1-{[1-(2,3-dihydroxypropoxy)cycloheptyl]methyl}-5-methyl-1H-pyrazol-4-yl)pyridine-2-carboxylic acid], the inhibitory constant (Ki) in assay [1] was less than 0.1 nM. For the same molecule, the EC50 in assay [2] (Mus musculus) stood at 33 nM.

For the molecule `COCCCC1(Cn2ncc(-c3ccc(N4CCc5cccc(C(=O)Nc6nc7ccccc7s6)c5C4)nc3C(=O)O)c2C)CCCCC1` [Example 97, 6-[8-(1,3-benzothiazol-2-ylcarbamoyl)-3,4-dihydroisoquinolin-2(1H)-yl]-3-(1-{[1-(3-methoxypropyl)cyclohexyl]methyl}-5-methyl-1H-pyrazol-4-yl)pyridine-2-carboxylic acid], the Ki in assay [1] worked out at 2 nM. The EC50 in assay [2] was less than 1 nM.

Turning to `Cc1c(-c2ccc(N3CCc4cccc(C(=O)Nc5nc6ccccc6s5)c4C3)nc2C(=O)O)cnn1Cc1ccccc1OCC1COCCO1` (centres unmarked) [Example 100, 6-[8-(1,3-benzothiazol-2-ylcarbamoyl)-3,4-dihydroisoquinolin-2(1H)-yl]-3-{1-[2-(1,4-dioxan-2-ylmethoxy)benzyl]-5-methyl-1H-pyrazol-4-yl}pyridine-2-carboxylic acid], the Ki in assay [1] came out at 3 nM. Also, the EC50 in assay [2] (Mus musculus) stood at 66 nM.

With `COCC1(Cn2ncc(-c3ccc(N4CCc5cccc(C(=O)Nc6nc7ccccc7s6)c5C4)nc3C(=O)O)c2C)CCCCC1` [Example 144, 6-[8-(1,3-benzothiazol-2-ylcarbamoyl)-3,4-dihydroisoquinolin-2(1H)-yl]-3-(1-{[1-(methoxymethyl)cyclohexyl]methyl}-5-methyl-1H-pyrazol-4-yl)pyridine-2-carboxylic acid], the Ki in assay [1] is less than 0.1 nM. In assay [2] (Mus musculus), the EC50 came to 213 nM.

For `Cc1c(-c2ccc(N3CCc4cccc(C(=O)Nc5nc6ccccc6s5)c4C3)nc2C(=O)O)cc(C#N)n1CC1CCCCC1` [Example 130, 6-[8-(1,3-benzothiazol-2-ylcarbamoyl)-3,4-dihydroisoquinolin-2(1H)-yl]-3-[5-cyano-1-(cyclohexylmethyl)-2-methyl-1H-pyrrol-3-yl]pyridine-2-carboxylic acid], the Ki in assay [1] was less than 0.1 nM. Further, the EC50 in assay [2] (Mus musculus) is 30 nM.

For the molecule `O=C(Nc1nc2ccccc2s1)c1cccc2c1CN(c1ccc(-c3cnn(CCc4ccccc4)c3)c(C(=O)O)n1)CC2` [Example 38, 6-[8-(1,3-benzothiazol-2-ylcarbamoyl)-3,4-dihydroisoquinolin-2(1H)-yl]-3-[1-(2-phenylethyl)-1H-pyrazol-4-yl]pyridine-2-carboxylic acid], the Ki in assay [1] was found to be 48 nM. In assay [2], the EC50 is more than 1000 nM.

Consider `O=C(Nc1nc2ccccc2s1)c1cccc2c1CN(c1ccc(-c3cccc(Oc4ccccc4)c3)c(C(=O)O)n1)CC2` [Example 103, 6-[8-(1,3-benzothiazol-2-ylcarbamoyl)-3,4-dihydroisoquinolin-2(1H)-yl]-3-(3-phenoxyphenyl)pyridine-2-carboxylic acid], for which, in assay [1], the Ki turned out to be 0.6 nM. For the same molecule, the EC50 in assay [2] was more than 1000 nM.

As for `O=C(Nc1nc2ccccc2s1)c1cccc2c1CN(c1ccc(-c3cnn(Cc4ccccc4O)c3)c(C(=O)O)n1)CC2` [Example 36, 6-[8-(1,3-benzothiazol-2-ylcarbamoyl)-3,4-dihydroisoquinolin-2(1H)-yl]-3-[1-(2-hydroxybenzyl)-1H-pyrazol-4-yl]pyridine-2-carboxylic acid], the inhibition constant (Ki) in assay [1] stood at 8 nM. Further, the EC50 in assay [2] (Mus musculus) was more than 1000 nM.

As to `COCCCC(c1ccccc1)n1cc(-c2ccc(N3CCc4cccc(C(=O)Nc5nc6ccccc6s5)c4C3)nc2C(=O)O)cn1` (centres unmarked) [Example 94, 6-[8-(1,3-benzothiazol-2-ylcarbamoyl)-3,4-dihydroisoquinolin-2(1H)-yl]-3-[1-(4-methoxy-1-phenylbutyl)-1H-pyrazol-4-yl]pyridine-2-carboxylic acid], in assay [1], the Ki amounted to 5 nM. In assay [2] (Mus musculus), the EC50 was 253 nM.
